According to US9663526B2, “Aminopyrimidinyl compounds” (Pfizer Inc., priority 2014, dated 2017):
Like-named read-outs stand apart in the source and are kept apart here.

How the values were obtained:
Type in all cases: biochemical
[1] = target: recombinant human kinase domain of JAK2 (Homo sapiens (Human), UniProt O60674); assay: JAK Caliper enzyme assay at 1 mM ATP (JAK2);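 also: microfluidic mobility-shift read-out of fluorescent synthetic peptide phosphorylation, percent product converted from peak heights, room temperature, DMSO-only wells as uninhibited baseline, inhibition curve fit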
Sequence of recombinant human kinase domain of JAK2 (O60674 849-1124): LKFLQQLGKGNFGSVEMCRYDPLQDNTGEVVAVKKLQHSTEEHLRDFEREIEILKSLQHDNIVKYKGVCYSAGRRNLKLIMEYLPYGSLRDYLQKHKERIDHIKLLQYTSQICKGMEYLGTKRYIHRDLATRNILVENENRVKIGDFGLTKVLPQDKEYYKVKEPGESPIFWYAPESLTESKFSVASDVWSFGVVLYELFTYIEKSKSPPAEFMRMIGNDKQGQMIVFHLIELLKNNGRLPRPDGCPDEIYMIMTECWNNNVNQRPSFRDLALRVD

[2] = target: recombinant human kinase domain of JAK3 (Homo sapiens (Human), UniProt P52333); assay: JAK Caliper enzyme assay at 1 mM ATP (JAK3);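 also: microfluidic mobility-shift readout of synthetic peptide phosphorylation, percent product converted from peak heights, normalized to DMSO-only wells as uninhibited baseline, room temperature incubation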
Sequence of recombinant human kinase domain of JAK3 (P52333 822-1111): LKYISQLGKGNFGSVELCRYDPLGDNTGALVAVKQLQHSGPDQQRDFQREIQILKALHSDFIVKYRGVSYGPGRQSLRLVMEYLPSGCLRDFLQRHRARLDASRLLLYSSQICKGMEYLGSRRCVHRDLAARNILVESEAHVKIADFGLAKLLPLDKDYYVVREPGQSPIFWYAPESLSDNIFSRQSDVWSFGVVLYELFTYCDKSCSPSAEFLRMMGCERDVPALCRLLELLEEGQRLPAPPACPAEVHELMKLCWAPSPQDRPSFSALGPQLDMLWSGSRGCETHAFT

[3] = target: recombinant human kinase domain of JAK1 (Homo sapiens (Human), UniProt P23458); assay: JAK Caliper enzyme assay at 1 mM ATP (JAK1);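 also: microfluidic mobility-shift readout of synthetic fluorescent peptide phosphorylation, percent product converted from peak height, inhibition relative to DMSO-only wells as uninhibited baseline, room temperature incubation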
Sequence of recombinant human kinase domain of JAK1 (P23458 875-1153): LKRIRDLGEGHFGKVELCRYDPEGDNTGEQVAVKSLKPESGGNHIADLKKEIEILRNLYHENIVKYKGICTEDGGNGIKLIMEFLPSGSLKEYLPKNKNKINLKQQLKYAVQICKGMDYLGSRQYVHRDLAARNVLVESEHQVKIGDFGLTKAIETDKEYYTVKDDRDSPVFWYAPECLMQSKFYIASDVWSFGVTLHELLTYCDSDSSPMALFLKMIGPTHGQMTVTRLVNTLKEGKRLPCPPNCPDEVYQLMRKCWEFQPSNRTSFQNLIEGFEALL

[4] = target: recombinant human kinase domain of TYK2 (Homo sapiens (Human), UniProt P29597); assay: JAK Caliper enzyme assay at 1 mM ATP (TYK2); conditions: 1 mM ATP; read-out: IC50 (nM) TYK2;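 also: microfluidic mobility-shift readout of synthetic peptide phosphorylation by TYK2, tuned to 20–30% conversion at room temperature, reaction stopped with EDTA, DMSO-only wells as uninhibited baseline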
Sequence of recombinant human kinase domain of TYK2 (P29597 897-1176): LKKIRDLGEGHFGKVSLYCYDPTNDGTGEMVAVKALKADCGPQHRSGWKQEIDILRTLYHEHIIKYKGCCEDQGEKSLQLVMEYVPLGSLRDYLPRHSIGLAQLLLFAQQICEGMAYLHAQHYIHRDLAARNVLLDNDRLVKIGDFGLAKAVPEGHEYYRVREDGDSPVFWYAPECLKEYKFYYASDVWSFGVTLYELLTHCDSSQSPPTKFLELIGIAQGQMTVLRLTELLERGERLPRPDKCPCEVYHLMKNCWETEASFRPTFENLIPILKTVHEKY

[5] = 1 mM ATP, read-out: IC50 (nM) JAK3
[6] = 1 mM ATP, read-out: IC50 (nM) JAK1

| SMILES | IC50 [1] [nM] | IC50 [2, 5] [nM] | IC50 [3, 6] [nM] | IC50 [4] [nM] | IC50 [2] [nM] | IC50 [3] [nM] |
| --- | --- | --- | --- | --- | --- | --- |
| Cn1cc(Nc2nccc(N3C[C@H]4CC[C@@H](C3)N4S(C)(=O)=O)n2)cn1 [Example 77, N-(1-methyl-1H-pyrazol-4-yl)-4-[(1R,5S)-8-(methylsulfonyl)-3,8-diazabicyclo[3.2.1]oct-3-yl]pyrimidin-2-amine] | 653 | > 10000 | 380 | 256 | – | – |
| Cn1cc(Nc2nccc(N3C[C@H]4CC[C@@H](C3)N4C[C@H]3CC3(F)F)n2)cn1 [Example 63, 4-[(1R,5S)-8-{[(1R)-2,2-difluorocyclopropyl]methyl}-3,8-diazabicyclo[3.2.1]oct-3-yl]-N-(1-methyl-1H-pyrazol-4-yl)pyrimidin-2-amine] | 856 | > 10000 | 303 | 125 | – | – |
| CCNC(=O)c1ccc(Nc2ncc(F)c(N3CC4CC(C3)N4C(=O)C(C)(F)F)n2)cc1C [Example 111, 4-({4-[6-(2,2-difluoropropanoyl)-3,6-diazabicyclo[3.1.1]hept-3-yl]-5-fluoropyrimidin-2-yl}amino)-N-ethyl-2-methylbenzamide] | 2210 | 4870 | 1690 | 56 | – | – |
| O=C(c1ccno1)N1[C@@H]2CC[C@H]1CN(c1ccnc(Nc3cn[nH]c3)n1)C2 [Example 17, 1,2-oxazol-5-yl{(1R,5S)-3-[2-(1H-pyrazol-4-ylamino)pyrimidin-4-yl]-3,8-diazabicyclo[3.2.1]oct-8-yl}methanone] | 3380 | > 10000 | 684 | 242 | – | – |
| CNC(=O)c1cc(Nc2nccc(N3C[C@H]4CC[C@@H](C3)N4C(=O)[C@@H]3CC3(F)F)n2)cc(C)n1 [Example 40, 4-({4-[(1R,5S)-8-{[(1S)-2,2-difluorocyclopropyl]carbonyl}-3,8-diazabicyclo[3.2.1]oct-3-yl]pyrimidin-2-yl}amino)-N,6-dimethylpyridine-2-carboxamide] | 189 | > 10000 | 369 | 70 | – | – |
| Cn1cc(Nc2nccc(N3C[C@H]4CC[C@@H](C3)N4C(=O)C3CC(F)(F)C3)n2)cn1 [Example 39, (3,3-difluorocyclobutyl)[(1R,5S)-3-{2-[(1-methyl-1H-pyrazol-4-yl)amino]pyrimidin-4-yl}-3,8-diazabicyclo[3.2.1]oct-8-yl]methanone] | 1170 | > 10000 | 305 | 136 | – | – |
| Cn1cc(Nc2nccc(N3C[C@H]4CC[C@@H](C3)N4C(=O)Nc3ccc(C(F)(F)F)cn3)n2)cn1 [Example 48, (1R,5S)-3-{2-[(1-methyl-1H-pyrazol-4-yl)amino]pyrimidin-4-yl}-N-[5-(trifluoromethyl)pyridin-2-yl]-3,8-diazabicyclo[3.2.1]octane-8-carboxamide] | 2510 | > 10000 | 300 | 964 | – | – |
| Cn1cc(Nc2nccc(N3C[C@H]4CC[C@@H](C3)N4C(=O)[C@H]3C[C@H]3C#N)n2)cn1 [Example 38, (1R,2S)-2-{[(1R,5S)-3-{2-[(1-methyl-1H-pyrazol-4-yl)amino]pyrimidin-4-yl}-3,8-diazabicyclo[3.2.1]oct-8-yl]carbonyl}cyclopropanecarbonitrile] | 2330 | > 10000 | 707 | 427 | – | – |
| Cn1cc(Nc2nccc(N3C[C@H]4CC[C@@H](C3)N4C(=O)[C@@H]3C[C@@H]3F)n2)cn1 [Example 43, [(1S,2S)-2-fluorocyclopropyl][(1R,5S)-3-{2-[(1-methyl-1H-pyrazol-4-yl)amino]pyrimidin-4-yl}-3,8-diazabicyclo[3.2.1]oct-8-yl]methanone] | 2840 | > 10000 | 902 | 474 | – | – |
| Cn1cc(Nc2nccc(N3C[C@H]4CC[C@@H](C3)N4C[C@H]3C[C@@H]3C#N)n2)cn1 [Example 70, (1S,2S)-2-{[(1R,5S)-3-{2-[(1-methyl-1H-pyrazol-4-yl)amino]pyrimidin-4-yl}-3,8-diazabicyclo[3.2.1 l]oct-8-yl]methyl}cyclopropanecarbonitrile] | 1540 | > 10000 | 259 | 261 | – | – |
| O=C(N[C@]12C[C@H]1CN(c1nc(Nc3cnn(CCO)c3)ncc1Cl)C2)C1CC1 [Example 108, N-[(1R,5S)-3-(5-chloro-2-{[1-(2-hydroxyethyl)-1H-pyrazol-4-yl]amino}pyrimidin-4-yl)-3-azabicyclo[3.1.0]hex-1-yl]cyclopropanecarboxamide] | 1490 | 3960 | 323 | 675 | – | – |
| Cn1cc(Nc2nccc(N3C[C@H]4CC[C@@H](C3)N4C(N)=O)n2)cn1 [Example 76, (1R,5S)-3-{2-[(1-methyl-1H-pyrazol-4-yl)amino]pyrimidin-4-yl}-3,8-diazabicyclo[3.2.1]octane-8-carboxamide] | 1480 | > 10000 | 537 | 662 | – | – |
| Cn1cc(Nc2nccc(N3C[C@H]4CC[C@@H](C3)N4C(=O)[C@@H]3C[C@@H]3C#N)n2)cn1 [Example 37, (1S,2R)-2-{[(1R,5S)-3-{2-[(1-methyl-1H-pyrazol-4-yl)amino]pyrimidin-4-yl}-3,8-diazabicyclo[3.2.1]oct-8-yl]carbonyl}cyclopropanecarbonitrile] | 1400 | 8310 | 467 | 250 | – | – |
| Cn1cc(Nc2nccc(N3C[C@H]4CC[C@@H](C3)N4C[C@H]3C[C@@H]3C#N)n2)cn1 [Example 69, (1S,2S)-2-{[(1R,5S)-3-{2-[(1-methyl-1H-pyrazol-4-yl)amino]pyrimidin-4-yl}-3,8-diazabicyclo[3.2.1]oct-8-yl]methyl}cyclopropanecarbonitrile] | 5700 | – | 1100 | 811 | > 10000 | – |
| CNC(=O)c1ncc(Nc2nccc(N3C[C@H]4CC[C@@H](C3)N4C[C@@H]3CC3(F)F)n2)cc1C (single isomer, unassigned) [Example 67] | 973 | > 10000 | 418 | 108 | – | – |
| C[C@H](CO)c1ccc(Nc2ncc(F)c(N3C[C@H]4[C@@H](C)[C@@]4(NC(=O)C4CC4)C3)n2)cn1 (single isomer, unassigned) [Example 104] | 3130 | > 10000 | 1150 | 86 | – | – |
| C[C@@H]1[C@@H]2CN(c3nc(Nc4ccc([C@@H](C)CO)nc4)ncc3F)C[C@]12NC(=O)C1CC1 (single isomer, unassigned) [Example 103] | 3460 | > 10000 | 1740 | 150 | – | – |
| C[C@@H]1[C@@H]2CN(c3nc(Nc4cnc(CO)c(Cl)c4)ncc3F)C[C@]12NC(=O)C1CC1 [Example 105, N-[(1S,5R,6R)-3-(2-{[5-chloro-6-(hydroxymethyl)pyridin-3-yl]amino}-5-fluoropyrimidin-4-yl)-6-methyl-3-azabicyclo[3.1.0]hex-1-yl]cyclopropanecarboxamide] | 6100 | > 10000 | 1570 | 152 | – | – |
| CNC(=O)c1ncc(Nc2nccc(N3C[C@H]4CC[C@@H](C3)N4[C@H]3C[C@H](C#N)C3)n2)cc1C (single isomer, unassigned) [Example 62] | 1390 | – | – | 224 | > 10000 | 1020 |
| O=C(N[C@@]12C[C@@H]1CN(c1nc(Nc3cnn(CCO)c3)ncc1Cl)C2)C1CC1 [Example 107, N-[(1S,5R)-3-(5-chloro-2-{[1-(2-hydroxyethyl)-1H-pyrazol-4-yl]amino}pyrimidin-4-yl)-3-azabicyclo[3.1.0]hex-1-yl]cyclopropanecarboxamide] | 177 | 1880 | 19 | 21 | – | – |
| Cn1cc(Nc2nccc(N3C[C@H]4CC[C@@H](C3)N4c3ncc(C#N)o3)n2)cn1 [Example 78, 2-[(1R,5S)-3-{2-[(1-methyl-1H-pyrazol-4-yl)amino]pyrimidin-4-yl}-3,8-diazabicyclo[3.2.1]oct-8-yl]-1,3-oxazole-5-carbonitrile] | 461 | > 10000 | 68 | 63 | – | – |
| CC(CC#N)N1[C@@H]2CC[C@H]1CN(c1ccnc(Nc3cnn(C)c3)n1)C2 (some centres unmarked) [Example 81] | 603 | > 10000 | 405 | 199 | – | – |
| O=C(C1CC1)N1[C@@H]2CC[C@H]1CN(c1nc(Nc3ccnnc3)ncc1F)C2 [Example 1, cyclopropyl{(1R,5S)-3-[5-fluoro-2-(pyridazin-4-ylamino)pyrimidin-4-yl]-3,8-diazabicyclo[3.2.1]oct-8-yl}methanone] | > 10000 | > 10000 | 2730 | 1100 | – | – |
| CC(CC#N)N1[C@@H]2CC[C@H]1CN(c1ccnc(Nc3cn[nH]c3)n1)C2 (stereo partly drawn) [Example 82, 3-{(1R,5S)-3-[2-(1H-pyrazol-4-ylamino)pyrimidin-4-yl]-3,8-diazabicyclo[3.2.1]oct-8-yl}butanenitrile] | 473 | > 10000 | 135 | 79 | – | – |
| CC(C)NC(=O)N1[C@@H]2CC[C@H]1CN(c1ccnc(Nc3cnn(C)c3)n1)C2 [Example 88, (1R,5S)-3-{2-[(1-methyl-1H-pyrazol-4-yl)amino]pyrimidin-4-yl}-N-(propan-2-yl)-3,8-diazabicyclo[3.2.1]octane-8-carboxamide] | 894 | > 10000 | 165 | 110 | – | – |
| Cn1cc(Nc2nccc(N3C[C@H]4CC[C@@H](C3)N4c3cc(C#N)ccn3)n2)cn1 [Example 92, 2-[(1R,5S)-3-{2-[(1-methyl-1H-pyrazol-4-yl)amino]pyrimidin-4-yl}-3,8-diazabicyclo[3.2.1]oct-8-yl]pyridine-4-carbonitrile] | 264 | 6560 | 52 | 62 | – | – |
